Test results from ChEMBL document CHEMBL1159220, “Additional dolabellane diterpenes from the Caribbean gorgonian octocoral Eunicea laciniata” (J Nat Prod, 1995).
Converted amounts (≈) assume the structure as drawn.

Each compound was assayed on HeLa (assay: Cytotoxicity against human HeLa cells).
Assay type: functional, cell-based

Point of comparison: `CC(C)=C1CC[C@@]2(C)C(=O)/C=C(/C)CC/C=C(/C)CC[C@H]12` [EDUENONE], IC50 50 µg/mL (≈ 175 µM). Against it:
- C/C1=C/C(=O)[C@]2(C)CC(=O)[C@H](C(C)C)[C@H]2CC/C(C)=C\CC1 [EDUDIONE] — higher, > 100 µg/mL
- C=C(C)[C@@]1(O)CC[C@@]2(C)C/C=C(\C)CC/C=C(\C)CC[C@@H]21 [EDUNOL] — 2-fold lower, 25 µg/mL (≈ 86.7 µM)
- CC(C)=C1CC[C@@]2(C)C(=O)C[C@H](C)CC/C=C(\C)CC[C@H]12 [EDUNONE] — 2-fold lower, 25 µg/mL (≈ 86.7 µM)
